This note sets out measurements from ChEMBL document CHEMBL4052679, “Design, synthesis and biological evaluation of novel indolin-2-ones as potent anticancer compounds” (Bioorg Med Chem Lett, 2017).

The source made the active and inactive calls. The calls are words filed in the database; no cut-off is given here.

Test [1] concerns the target Cyclin-dependent kinase 2/cyclin E1 (Homo sapiens) (UniProt P24864+P24941). The experiment in a line: Inhibition of CDK2/Cyclin E1 (unknown origin) at 10 uM. Format: protein-complex assay.
Test [2] addresses CDK9/cyclin T1 (Homo sapiens) (UniProt O60563+P50750). Nature of the test: Inhibition of CDK9/Cyclin T1 (unknown origin) at 10 uM. Format: protein-complex assay.
Test [3] deals with HepG2. Nature of the test: Growth inhibition of human HepG2 cells incubated for 3 days by MTT assay. The note with it: HepG2, 72 h.
The test system of test [4] is A2780. The experiment in a line: Growth inhibition of human A2780 cells incubated for 3 days by MTT assay. The note with it: A2780, 72 h.
The subject of test [5] is HCT-116. The experiment in a line: Growth inhibition of human HCT116 cells incubated for 3 days by MTT assay. The note with it: HCT-116, 72 h.
For test [6], the system named is BGC-823. The experiment in a line: Growth inhibition of human BGC823 cells incubated for 3 days by MTT assay. The note with it: BGC-823, 72 h.
For test [7], the system named is NCI-H1650. Nature of the test: Growth inhibition of human NCI-H1650 cells incubated for 3 days by MTT assay. The conditions noted are these: NCI-H1650, 72 h.
Test [8] relates to HepG2. The experiment in a line: Growth inhibition of human HepG2 cells at 10 uM incubated for 3 days by MTT assay.
Test [9] concerns A2780. Nature of the test: Growth inhibition of human A2780 cells at 10 uM incubated for 3 days by MTT assay.
Test [10] concerns HCT-116. The experiment in a line: Growth inhibition of human HCT116 cells at 10 uM incubated for 3 days by MTT assay.
The test system of test [11] is BGC-823. Nature of the test: Growth inhibition of human BGC823 cells at 10 uM incubated for 3 days by MTT assay.
Test [12] deals with NCI-H1650. The experiment in a line: Growth inhibition of human NCI-H1650 cells at 10 uM incubated for 3 days by MTT assay.

Take `O=C1Nc2ccc(F)cc2/C1=C\C(=O)c1cnc2ccc(Cl)nn12`: the inhibition result in test [1] and in [2] was “inactive” each time. In addition, the IC50 in test [3] came out at 3090 nM; in [4], 2370 nM; in [5], 1410 nM; in test [6], 8020 nM; in [7], 2730 nM.

Consider `O=C1Nc2ccc(F)cc2/C1=C\C(=O)c1ccc(O)cc1F`, for which the inhibition result in [1] and in test [2] was “inactive” throughout. In addition, the IC50 was 3440 nM in test [3]; 1580 nM in [4]; 1070 nM in test [5]; 6120 nM in [6]; 3460 nM in [7].

With `CC(C)CC(=O)Nc1ccc2c(c1)/C(=C/Nc1cccc(N3CCN(C)CC3)c1)C(=O)N2`, the inhibition result in [1] and in test [2] was “inactive” in each case. The IC50 in test [3] turned out to be 5070 nM; in test [4], 3370 nM; in [5] it was 9410 nM; in test [6] it was 6080 nM; in [7], 5870 nM.

As for `CN1CCN(c2cccc(N/C=C3\C(=O)Nc4ccc(NC(=O)c5cccc(F)c5)cc43)c2)CC1`, the inhibition result in [1] and in [2] was “inactive” throughout. The IC50 was determined as 6720 nM in [3]; 2910 nM in test [4]; 2740 nM in test [5]; 8500 nM in [6]; 4280 nM in test [7].

As to `O=C1Nc2ccc(F)cc2/C1=C\C(=O)c1ccccc1O`, the inhibition result in test [1] and in test [2] was “inactive” each time. Also, the “growth inhibition (GI)” value in test [8], in test [9], in test [10], in test [11] and in [12] was “inactive” throughout.

`O=C1Nc2ccc(F)cc2/C1=C\C(=O)c1cc(Cl)sc1Cl`: the inhibition result in [1] and in test [2] was “inactive” in each case. Also, the “growth inhibition (GI)” value in [8], in test [9], in [10], in test [11] and in [12] was “inactive” each time.

As for `O=C1Nc2ccc(F)cc2/C1=C\C(=O)c1sccc1Cl`, the inhibition entry in test [1] and in [2] was “inactive” in each case. Besides, the IC50 worked out at 3100 nM in test [3]; 2140 nM in [4]; 2450 nM in test [5]; 2660 nM in test [6]; 3560 nM in [7].

In the case of `O=C1Nc2ccc(F)cc2/C1=C\C(=O)c1ccc[nH]1`, the inhibition entry in [1] and in [2] was “inactive” throughout. The IC50 in test [3] amounted to 3120 nM; in test [4] it was 2170 nM; in [5] it was 1380 nM; in test [6], 6420 nM; in [7], 2840 nM.

`O=C1Nc2ccc(F)cc2/C1=C\C(=O)c1cnccn1`: the inhibition result in test [1] and in test [2] was “inactive” throughout. In addition, the “growth inhibition (GI)” value in [8], in [9], in [10], in test [11] and in [12] was “inactive” throughout.

Turning to `O=C1Nc2ccc(F)cc2/C1=C\C(=O)c1ccco1`, the inhibition entry in test [1] and in [2] was “inactive” each time. For the same compound, the “growth inhibition (GI)” value in test [8], in test [9], in [10], in [11] and in test [12] was “inactive” each time.

In the case of `CN1CCN(c2cccc(N/C=C3\C(=O)Nc4ccc(NC(=O)c5ccc[nH]5)cc43)c2)CC1`, the inhibition entry in test [1] and in [2] was “inactive” in each case. Moreover, the IC50 in [3] turned out to be 5370 nM; in test [4] it was 4460 nM; in test [7], 7560 nM. Moreover, the “growth inhibition (GI)” value in test [10] and in test [11] was “inactive” throughout.

As to `CN1CCN(c2cccc(N/C=C3\C(=O)Nc4ccc(NC(=O)c5c(Cl)cccc5Cl)cc43)c2)CC1`, the inhibition entry in test [1] and in test [2] was “inactive” in each case. The IC50 stood at 2370 nM in [3]; 2140 nM in test [4]; 2280 nM in [5]; 2240 nM in [6]; 2170 nM in [7].

For the compound `O=C1Nc2ccc(F)cc2/C1=C\C(=O)c1nccs1`, the inhibition entry in test [1] and in test [2] was “inactive” each time. In addition, the “growth inhibition (GI)” value in test [8], in [9], in test [10], in test [11] and in [12] was “inactive” throughout.

With `O=C1Nc2ccc(F)cc2/C1=C\C(=O)c1cccs1`, the inhibition result in test [1] and in test [2] was “inactive” in each case. In addition, the half-inhibitory concentration (IC50) was found to be 8780 nM in test [3]; 2750 nM in [4]; 1840 nM in test [5]; 7750 nM in [6]; 3220 nM in test [7].

As to `O=C1Nc2ccc(F)cc2/C1=C\C(=O)c1ccc(C2CCCCC2)cc1`, the inhibition entry in [1] and in test [2] was “inactive” in each case. Moreover, the half-inhibitory concentration (IC50) was 2840 nM in [3]; 2310 nM in test [4]; 2520 nM in test [5]; 4450 nM in [6]; 2730 nM in test [7].

With `O=C1Nc2ccccc2/C1=C\C(=O)c1c[nH]c2ccccc12`, the inhibition entry in test [1] and in [2] was “inactive” throughout. Also, the half-inhibitory concentration (IC50) in [3] was 2110 nM; in test [4], 2080 nM; in [5] it was 860 nM; in test [6], 9440 nM; in test [7] it was 1270 nM.

Take `O=C1Nc2ccc(F)cc2/C1=C\C(=O)c1c[nH]c2ccccc12`: the inhibition result in [1] and in test [2] was “inactive” in each case. Also, the IC50 turned out to be 1860 nM in [3]; 2440 nM in test [4]; 3010 nM in [5]; 8990 nM in test [6]; 6580 nM in test [7].

Take `COc1ccc(C(=O)Nc2ccc3c(c2)/C(=C/Nc2cccc(N4CCN(C)CC4)c2)C(=O)N3)cc1`: the inhibition entry in test [1] and in test [2] was “inactive” each time. The half-maximal inhibitory concentration (IC50) was found to be 1780 nM in test [3]; 2050 nM in test [4]; 2010 nM in [5]; 3170 nM in [6]; 1870 nM in test [7].

On to `CC(=O)O[C@H]1C(=O)[C@@]2(C)[C@H]([C@H](OC(=O)c3ccccc3)[C@]3(O)C[C@H](OC(=O)[C@H](O)[C@@H](NC(=O)c4ccccc4)c4ccccc4)C(C)=C1C3(C)C)[C@]1(OC(C)=O)CO[C@@H]1C[C@@H]2O` [PACLITAXEL], for which the 50% inhibitory concentration (IC50) in test [3] worked out at 20 nM; in [4] it was 30 nM; in test [5], 30 nM; in test [6], 1 nM; in [7], 70 nM.

As for `O=C1Nc2ccc([N+](=O)[O-])cc2/C1=C\C(=O)c1ccc(C2CCCCC2)cc1`, the inhibition result in test [1] and in test [2] was “inactive” each time. In addition, the IC50 stood at 3990 nM in [3]; 2090 nM in [4]; 2320 nM in test [5]; 5900 nM in test [6]; 3860 nM in test [7].

Take `CN1CCC(C(=O)Nc2ccc3c(c2)/C(=C/Nc2cccc(N4CCN(C)CC4)c2)C(=O)N3)CC1`: the inhibition entry in [1] and in [2] was “inactive” throughout. Moreover, the IC50 in test [5] stood at 4670 nM. Besides, the “growth inhibition (GI)” value in [8], in test [9], in test [11] and in test [12] was “inactive” throughout.

Regarding `O=C1Nc2ccc(F)cc2/C1=C\C(=O)c1ccc(-n2ccnc2)cc1`, the inhibition result in [1] and in [2] was “inactive” throughout. Also, the “growth inhibition (GI)” value in [8], in test [9], in test [10], in test [11] and in [12] was “inactive” in each case.
